Test system: liver metastasis of a breast carcinoma
Assay: treatment of the individual patient chosen according to the test results
Assay type: in vivo, human
From the text: Biopsy material of a liver metastasis of a breast carcinoma has been obtained from a patient.

For `CCc1c2c(nc3ccc(OC(=O)N4CCC(N5CCCCC5)CC4)cc13)-c1cc3c(c(=O)n1C2)COC(=O)[C@]3(O)CC` [Irinotecan], the “tumor marker CA15.3 after treatment” value (before treatment 22,230 units/ml, infused in two-weeks intervals according to standard protocols) was 1513 units and the malignant ascites (infused in two-weeks intervals) was “markedly reduced”.
In the case of Keytruda: PDL Antibody therapy, the “tumor markers in controls” value (100 mg) is reported as “did not change tumor markers”.

Source: patent publication US20220036967A1, “A METHOD TO DETERMINE AGENTS FOR PERSONALIZED USE” (priority 2018, published 2022)
